{"source": "patent US20110237493A1", "about": "“DIPEPTIDE LINKED MEDICINAL AGENTS” (priority 2008, published 2011)", "key": {"[1]": {"experiment": "Rate of model dipeptide cleavage in PBS (HPLC / LC-MS)", "settings": "for half-life at 1 mg/ml: buffer; for Relative peak area (%) HPLC peak a (molecular weight 702) / Relative peak area (%) HPLC peak b (molecular weight 902): PBS, 37° C.", "procedure": "The solution was incubated at 37° C. […] The dipeptide cleavage was quenched by lowering the pH with an equal volume of 0.1% TFA. The rate of cleavage was qualitatively monitored by LC-MS and quantitatively studied by HPLC. The retention time and relative peak area for the prodrug and the parent model peptide were quantified using Peak Simple Chromatography software.\nThe flow rate was 1 ml/min.\nThe concentrations of the prodrugs and the model parent peptide were determined by their respective peak areas, ‘a’ and ‘b’ for each of the different collection times (Table 1). […] The slope of this plot provides the rate constant ‘k’."}, "[2]": {"settings": "plasma"}}, "note": "Where two headings read alike, the source gives them in different places. Where a SMILES comes first, the peptide text is derived from it. [ ]: non-standard residue; d: D form. NHexGly = CCCCCCNCC(=O)O; Sar = CNCC(=O)O"}
{"smiles": "C[C@@H](O)[C@H](NC(=O)CNC(=O)[C@H](CCCNC(=N)N)NC(=O)[C@H](CO)NC(=O)[C@H](Cc1c[nH]cn1)NC(=O)CN(C)C(=O)CO)C(=O)N[C@@H](Cc1ccccc1)C(N)=O", "note": "[Compound 28]", "values": [{"measurement": "half-life at 1 mg/ml", "setting": "[1]", "result": 149, "unit": "h"}]}
{"smiles": "C[C@H](O)[C@@H](NC(=O)CNC(=O)[C@@H](CCCNC(=N)N)NC(=O)[C@H](NC(=O)[C@@H](Cc1c[nH]cn1)NC(=O)CN(C)C(=O)[C@@H](N)CCCCN)[C@H](C)O)C(=O)N[C@H](Cc1ccccc1)C(N)=O", "note": "[peptide B, Lys-Sar-dHdTdRGdTdF-NH2] (H-K[Sar][dH][dT][dR]G[dT][dF]-NH2)", "values": [{"measurement": "Relative peak area (%) HPLC peak a (molecular weight 702)", "setting": "[2]; 5 h", "result": 17.0, "unit": "%"}, {"measurement": "Relative peak area (%) HPLC peak b (molecular weight 902)", "setting": "[2]; 5 h", "result": 83.0, "unit": "%"}, {"measurement": "Relative peak area (%) HPLC peak a (molecular weight 702)", "setting": "[2]; 11 h", "result": 29.2, "unit": "%"}, {"measurement": "Relative peak area (%) HPLC peak b (molecular weight 902)", "setting": "[2]; 11 h", "result": 70.8, "unit": "%"}, {"measurement": "Relative peak area (%) HPLC peak a (molecular weight 702)", "setting": "[2]; 24 h", "result": 60.2, "unit": "%"}, {"measurement": "Relative peak area (%) HPLC peak b (molecular weight 902)", "setting": "[2]; 24 h", "result": 39.8, "unit": "%"}, {"measurement": "Relative peak area (%) HPLC peak a (molecular weight 702)", "setting": "[2]; 32 h", "result": 54.0, "unit": "%"}, {"measurement": "Relative peak area (%) HPLC peak b (molecular weight 902)", "setting": "[2]; 32 h", "result": 46.0, "unit": "%"}, {"measurement": "Relative peak area (%) HPLC peak a (molecular weight 702)", "setting": "[2]; 48 h", "result": 27.6, "unit": "%"}, {"measurement": "Relative peak area (%) HPLC peak b (molecular weight 902)", "setting": "[2]; 48 h", "result": 72.4, "unit": "%"}]}
{"smiles": "C[C@@H](O)[C@H](NC(=O)CNC(=O)[C@H](CCCNC(=N)N)NC(=O)[C@H](CO)NC(=O)[C@H](Cc1c[nH]cn1)NC(=O)CN(C)C(=O)[C@@H](N)Cc1ccccc1)C(=O)N[C@@H](Cc1ccccc1)C(N)=O", "note": "[Compound 34] (H-F[Sar]HSRGTF-NH2)", "values": [{"measurement": "half-life at 1 mg/ml", "setting": "[1]", "result": 29, "unit": "h"}]}
{"smiles": "CCCCCCN(CC(=O)N[C@@H](Cc1c[nH]cn1)C(=O)N[C@@H](CO)C(=O)N[C@@H](CCCNC(=N)N)C(=O)NCC(=O)N[C@H](C(=O)N[C@@H](Cc1ccccc1)C(N)=O)[C@@H](C)O)C(=O)CN", "note": "[Compound 29] (H-G[NHexGly]HSRGTF-NH2)", "values": [{"measurement": "half-life at 1 mg/ml", "setting": "[1]", "result": 70, "unit": "h"}]}
{"smiles": "C[C@@H](O)[C@H](NC(=O)CNC(=O)[C@H](CCCNC(=N)N)NC(=O)[C@H](CO)NC(=O)[C@H](Cc1c[nH]cn1)NC(=O)CN(C)C(=O)[C@H](N)CCCCN)C(=O)N[C@@H](Cc1ccccc1)C(N)=O", "note": "[Compound 30]", "values": [{"measurement": "half-life at 1 mg/ml", "setting": "[1]", "result": 27, "unit": "h"}]}
{"smiles": "C[C@@H](O)[C@H](NC(=O)CNC(=O)[C@H](CCCNC(=N)N)NC(=O)[C@H](CO)NC(=O)[C@H](Cc1c[nH]cn1)NC(=O)CN(C)C(=O)[C@@H]1CCCN1)C(=O)N[C@@H](Cc1ccccc1)C(N)=O", "note": "[Compound 36] (H-P[Sar]HSRGTF-NH2)", "values": [{"measurement": "half-life at 1 mg/ml", "setting": "[1]", "result": 181, "unit": "h"}]}
{"smiles": "CCCCCCN(CC(=O)N[C@@H](Cc1c[nH]cn1)C(=O)N[C@@H](CO)C(=O)N[C@@H](CCCNC(=N)N)C(=O)NCC(=O)N[C@H](C(=O)N[C@@H](Cc1ccccc1)C(N)=O)[C@@H](C)O)C(=O)C(C)(C)N", "note": "[Compound 25]", "values": [{"measurement": "half-life at 1 mg/ml", "setting": "[1]", "result": 0.167, "unit": "h"}]}
{"smiles": "C[C@@H](O)[C@H](NC(=O)CNC(=O)[C@H](CCCNC(=N)N)NC(=O)[C@H](CO)NC(=O)[C@H](Cc1c[nH]cn1)NC(=O)CN(C)C(=O)[C@@H](N)CCCCN)C(=O)N[C@@H](Cc1ccccc1)C(N)=O", "note": "[peptide A, Lys-Sar-HSRGTF-NH2]", "values": [{"measurement": "Relative peak area (%) HPLC peak a (molecular weight 702)", "setting": "[1]; 5 h", "result": 26.5, "unit": "%"}, {"measurement": "Relative peak area (%) HPLC peak b (molecular weight 902)", "setting": "[1]; 5 h", "result": 73.5, "unit": "%"}, {"measurement": "Relative peak area (%) HPLC peak a (molecular weight 702)", "setting": "[1]; 8 h", "result": 28.9, "unit": "%"}, {"measurement": "Relative peak area (%) HPLC peak b (molecular weight 902)", "setting": "[1]; 8 h", "result": 71.1, "unit": "%"}, {"measurement": "Relative peak area (%) HPLC peak a (molecular weight 702)", "setting": "[1]; 24 h", "result": 28.8, "unit": "%"}, {"measurement": "Relative peak area (%) HPLC peak b (molecular weight 902)", "setting": "[1]; 24 h", "result": 71.2, "unit": "%"}, {"measurement": "Relative peak area (%) HPLC peak a (molecular weight 702)", "setting": "[1]; 31 h", "result": 77.7, "unit": "%"}, {"measurement": "Relative peak area (%) HPLC peak b (molecular weight 902)", "setting": "[1]; 31 h", "result": 22.3, "unit": "%"}, {"measurement": "Relative peak area (%) HPLC peak a (molecular weight 702)", "setting": "[1]; 47 h", "result": 90.0, "unit": "%"}, {"measurement": "Relative peak area (%) HPLC peak b (molecular weight 902)", "setting": "[1]; 47 h", "result": 10.0, "unit": "%"}, {"measurement": "half-life at 1 mg/ml", "setting": "[1]", "result": 14, "unit": "h"}]}
{"smiles": "C[C@@H](O)[C@H](NC(=O)CNC(=O)[C@H](CCCNC(=N)N)NC(=O)[C@H](CO)NC(=O)[C@H](Cc1c[nH]cn1)NC(=O)CN(C)C(=O)[C@@H](N)CCCCN)C(=O)N[C@@H](Cc1ccccc1)C(N)=O", "note": "[Compound 33]", "values": [{"measurement": "t1/2 of cleavage of dipeptide A-B", "setting": "[1]; in PBS, A-B linked to position 1 (X) of model hexapeptide XSRGTF-NH2", "result": 14, "unit": "h"}]}
{"smiles": "C[C@@H](O)[C@H](NC(=O)CNC(=O)[C@H](CCCNC(=N)N)NC(=O)[C@H](CO)NC(=O)[C@H](Cc1c[nH]cn1)NC(=O)CN(C)C(=O)C(C)(C)N)C(=O)N[C@@H](Cc1ccccc1)C(N)=O", "note": "[Compound 24]", "values": [{"measurement": "half-life at 1 mg/ml", "setting": "[1]", "result": 0.817, "unit": "h"}]}
{"smiles": "C[C@@H](O)[C@H](NC(=O)CNC(=O)[C@H](CCCNC(=N)N)NC(=O)[C@H](CO)NC(=O)[C@H](Cc1c[nH]cn1)NC(=O)CN(C)C(=O)[C@@H](N)CO)C(=O)N[C@@H](Cc1ccccc1)C(N)=O", "note": "[Compound 35] (H-S[Sar]HSRGTF-NH2)", "values": [{"measurement": "half-life at 1 mg/ml", "setting": "[1]", "result": 17, "unit": "h"}]}
{"smiles": "C[C@@H](O)[C@H](NC(=O)CNC(=O)[C@H](CCCNC(=N)N)NC(=O)[C@H](CO)NC(=O)[C@H](Cc1c[nH]cn1)NC(=O)CN(C)C(=O)CN)C(=O)N[C@@H](Cc1ccccc1)C(N)=O", "note": "[Compound 27] (H-G[Sar]HSRGTF-NH2)", "values": [{"measurement": "half-life at 1 mg/ml", "setting": "[1]", "result": 104, "unit": "h"}]}
